This is an account of results in PMC5459853, “Cathepsin S inhibition combines control of systemic and peripheral pathomechanisms of autoimmune tissue injury” (Scientific Reports, 2017).

Entries after “also recorded” stand apart in the source; their conditions may differ.

What all share (type): in vivo
Data set [1] has as its system MRL-(Fas)lpr mice. Briefly: Intravenous recombinant Cat-S injection: albuminuria and glomerular ultrastructure (TEM). The note with it: 10 µg recombinant Cat-S i.v. As to the method:
(§1) Four-week-old female MRL-(Fas)lpr mice were purchased from Harlan Winkelmann (Borchen, Germany) and kept under pathogen-free conditions in a 12 hour light and dark cycle with free access to food and water. All animal experiments were performed in accordance with the European protection laws of animal welfare, and with approval by the local government authorities Regierung von Oberbayern (reference number: 55.2.1-54-2532.2-11-12). At 11 or 15 weeks of age only mice with proteinuria (Albustix, Bayer AG, Leverkusen, Germany) were randomized into five different groups (n = 10) receiving different medicated diets: Three groups were fed with chow mixed with either 3, 10 or 30 mg/kg/day RO5459072, another group’s chow was mixed with 100 mg/kg/day mycophenolate mofetil (MMF), and one group received a standard diet (vehicle). The dose of MMF was chosen according to several studies reporting strong efficacy on SLE and lupus nephritis in MRL-(Fas)lpr mice[24]–[26]. […] At the age of 19 weeks all mice were sacrificed by cervical dislocation. Blood and urine samples were collected at different time points as indicated. In other experiments 7 week old female MRL-(Fas)lpr mice were randomized into three groups (n = 3) to receive a single intravenous injection of 10 µg sterile recombinant Cat-S and one group receiving vehicle (100 µl sterile PBS). One of the Cat-S groups was pretreated with 30 mg/kg/day RO5459072 starting one week prior to Cat-S injection; another group was pretreated with a total of four daily intra-peritoneal injections of the PAR-2 inhibitor GB83 (10 mg/kg).
Urinary albumin/creatinine ratios were determined using the Mouse Albumin ELISA Quantitation set (Bethyl Laboratories, Montgomery, TX) and the Creatinine FS kit (DiaSys Diagnostic Systems, Holzheim, Germany)[44]. BUN levels were determined in plasma samples using a Urea FS kit (DiaSys Diagnostic Systems). Mouse IgM, IgG and its isotypes IgG1, IgG2a and IgG2b plasma levels were measured using ELISA Sets (Bethyl Laboratories) at a plasma dilution of 1:1,000 to 1:100,000. Double-stranded DNA IgG and IgM antibodies were quantified as described. Briefly, 96 well Nunc-Immuno plates (Thermo Fisher Scientific, Roskilde, Denmark) were coated with poly-L-lysine (1:1 diluted with PBS) and incubated for two hours. […] Absorbance was measured at 450 nm using a Tecan Microplate Reader (Biotek, Winnoski, VT). Indirect immunofluorescence was used to quantify ANA in mouse plasma. […]
Mouse kidney tissue was fixed in 2% paraformaldehyde/2% glutaraldehyde and 0.1M sodium phosphate buffer (pH 7.4) for 24 hours and processed as described. Samples were analyzed with a 1200EX electron microscope (JEOL, Tokyo, Japan).

In data set [2] the test system is MRL-(Fas)lpr mice. As to the kind of experiment: Experimental SLE and lupus nephritis, treatment week 11 to 19. Here is the method: as §1
(§2) Kidney tissue samples were collected from all mice and fixed overnight in 4% buffered formalin. Subsequently the fixed tissue samples were embedded in paraffin and cut into 4 µm thick serial sections. Kidney paraffin sections were stained with periodic acid-Schiff (PAS) reaction using standardized protocols as described. Scoring of lupus nephritis activity and chronicity indices was performed according to human lupus nephritis, [43]. Methenamine silver staining was performed on paraffin embedded kidney sections and semiquantitatively scored form 0–3 by a blinded observer. For immunostaining the following primary antibodies were used: anti-mouse CD3 (Abcam, Cambridge, UK), complement C3c (Biobyt Ltd, Cambridge, UK), CD31 (Dianova GmbH, Hamburg, Germany), WT1 (Santa Cruz Biotechnology, Dallas, Texas) and nephrin (Acris Antibodies, San Diego, CA). The immunostaining for C3c and CD31 were analyzed using the ImageJ software by measuring positively stained area and dividing it by the total area of the glomerulus and reported as percentage of +ve area. Sections stained for WT1/nephrin and CD3 were evaluated by counting positive cells per glomerulus. All the morphometric analysis were carried out in a blinded fashion.
(§3) Urinary albumin/creatinine ratios were determined using the Mouse Albumin ELISA Quantitation set (Bethyl Laboratories, Montgomery, TX) and the Creatinine FS kit (DiaSys Diagnostic Systems, Holzheim, Germany)[44]. BUN levels were determined in plasma samples using a Urea FS kit (DiaSys Diagnostic Systems). Mouse IgM, IgG and its isotypes IgG1, IgG2a and IgG2b plasma levels were measured using ELISA Sets (Bethyl Laboratories) at a plasma dilution of 1:1,000 to 1:100,000. Double-stranded DNA IgG and IgM antibodies were quantified as described. Briefly, 96 well Nunc-Immuno plates (Thermo Fisher Scientific, Roskilde, Denmark) were coated with poly-L-lysine (1:1 diluted with PBS) and incubated for two hours. After washing the plates, the plates were coated with 1 µg/ml mouse tail dsDNA sparing the wells for standards, which were coated with anti-mIgG and anti-mIgM (Bethyl Laboratories). The standard curve was fixed from purified mIgG and mIgM (Bethyl Laboratories). The plasma samples were diluted 1:1,000 and added into the wells. After 1 h the assay was developed using HRP-labelled goat anti-mIgG and anti-mIgM and TMB substrate (BD Bioscience, San Diego, CA). […]

The test system of data set [3] is MRL-(Fas)lpr mice. Briefly: Experimental lupus nephritis, late onset of treatment week 15 to 19. The conditions noted are these: late onset week 15-19. As to the method: To further assess the potency of Cat-S inhibition to control advanced lupus nephritis we performed identical experiments with the highest dose of RO5459072 and MMF, which were not initiated before week 15 of age and continued for only 4 weeks and terminated again at week 19.
as §1, §2
as §3, with “Laboratories).” for “Laboratories). The standard curve was fixed from purified mIgG and mIgM (Bethyl Laboratories). The plasma samples were diluted 1:1,000 and added into the wells. After 1 h the assay was developed using HRP-labelled goat anti-mIgG and anti-mIgM and TMB substrate (BD Bioscience, San Diego, CA).”

With `CC[C@H](C)[C@H](NC(=O)[C@H](CC1CCCCC1)NC(=O)c1ccno1)C(=O)N1CCC2(CCc3ccccc32)CC1` [GB83, reference compound], the Cat-S-induced albuminuria result with MRL-(Fas)lpr mice [1] (30 min, RO5459072 30 mg/kg/day pretreatment, GB83 10 mg/kg i.p.) is “completely prevented; also recorded: entirely blocked”. Further, the “Cat-S-induced glomerular endothelial cell injury (TEM)” value in the data set with MRL-(Fas)lpr mice [1] (24 h) is reported as “completely prevented”.
On to `COc1c(C)c2c(c(O)c1C/C=C(\C)CCC(=O)OCCN1CCOCC1)C(=O)OC2` [MMF, mycophenolate mofetil, reference compound], for which the “food intake or body weight between groups” value in the data set with MRL-(Fas)lpr mice [2] (medicated diets, throughout the study period) is listed as “no significant difference”. In the data set on MRL-(Fas)lpr mice [2] (real time PCR, kidney), the “intrarenal mRNA expression of IL-6, MCP-1/CCL2, RANTES/CCL5 and CXCL2” value is recorded as “suppressed”; the “intrarenal mRNA expression of TNF-α, IFN-γ and SDF-1/CXCL12” value was “remained unaffected”. Moreover, the “blood urea nitrogen (BUN) over time” value with MRL-(Fas)lpr mice [2] (week 11-19) is reported as “prevented the progressive increase”. Further, the “total levels of plasma IgM” value with MRL-(Fas)lpr mice [2] (week 11-19, ELISA) is given as “suppressed plasma IgM levels below baseline”. For the same compound, the “plasma dsDNA IgG levels (IgG autoantibodies)” value in the data set on MRL-(Fas)lpr mice [2] (week 11-19, RO5459072 highest dose, MMF 100 mg/kg/day, ELISA) was “does not reduce”. In addition, the “spleen CD11c+/CD11b+/MHCII+ antigen-presenting cells” value in the data set on MRL-(Fas)lpr mice [2] (week 11-19, flow cytometry) is on record as “suppressed”. For the same compound, the “integrity of the glomerular vasculature (CD31 staining)” value with MRL-(Fas)lpr mice [2] (week 19) is “improved”. In addition, in the data set with MRL-(Fas)lpr mice [3], the “anti-dsDNA IgM” value is reported as “did not affect”; the “lupus nephritis disease chronicity index” value was “failed to significantly suppress”; the “plasma IgM levels” value was “trend toward lower”; the “proteinuria and BUN at week 19 compared to control mice” value is “significantly reduced”. The “plasma IgG and its isotypes and anti-dsDNA IgG” value in the data set on MRL-(Fas)lpr mice [3] (highest dose of RO5459072, MMF) is “had no effect”.
